The NIST ThermoML archive (doi:10.1021/acs.jced.6b00687)
Numbers after ± are expanded uncertainties.

Assay: xn = mol fraction of the nth substance listed
Details: Gas, Buoyancy - hydrostatic balance with magnetic suspension - two sinkers

Work on `[Ar]` [argon] + O=C=O yielded a mass density (273.15 K, 510.11 kPa, x2 = 0.7509) of 9.89648 ± 0.0044 kg/m3, a mass density (273.15 K, 511.42 kPa, x2 = 0.5) of 9.60258 ± 0.0043 kg/m3 and a mass density (273.15 K, 1005.7 kPa, x2 = 0.7509) of 20.0055 ± 0.0078 kg/m3. The mass density (273.15 K, 1013.1 kPa, x2 = 0.5) was 19.3275 ± 0.0073 kg/m3, the mass density (273.15 K, 2007.3 kPa, x2 = 0.7509) was 42.2195 ± 0.015 kg/m3 and the mass density (273.15 K, 2996.7 kPa, x2 = 0.7509) was 67.1561 ± 0.026 kg/m3. For the same compound, the mass density (273.15 K, 3008.4 kPa, x2 = 0.5) was 61.4185 ± 0.022 kg/m3, the mass density (273.15 K, 4022.5 kPa, x2 = 0.7509) was 97.4841 ± 0.045 kg/m3 and the mass density (273.15 K, 4488.6 kPa, x2 = 0.7509) was 113.378 ± 0.053 kg/m3. For the same compound, the mass density (273.15 K, 5000.6 kPa, x2 = 0.7509) was 133.062 ± 0.059 kg/m3, the mass density (273.15 K, 5017 kPa, x2 = 0.5) was 110.665 ± 0.05 kg/m3 and the mass density (273.15 K, 6031.1 kPa, x2 = 0.5) was 138.861 ± 0.047 kg/m3. It also gave a mass density (273.15 K, 6410 kPa, x2 = 0.5) of 150.086 ± 0.05 kg/m3, a mass density (283.15 K, 508.18 kPa, x2 = 0.7509) of 9.48215 ± 0.0043 kg/m3 and a mass density (283.15 K, 1002 kPa, x2 = 0.7509) of 19.109 ± 0.0073 kg/m3. For the same compound, the mass density (283.15 K, 2002.5 kPa, x2 = 0.7509) was 40.0616 ± 0.014 kg/m3, the mass density (283.15 K, 2989.1 kPa, x2 = 0.7509) was 63.047 ± 0.022 kg/m3 and the mass density (283.15 K, 3992.2 kPa, x2 = 0.7509) was 89.5274 ± 0.036 kg/m3. The mass density (283.15 K, 4988.1 kPa, x2 = 0.7509) was 120.07 ± 0.063 kg/m3, the mass density (283.15 K, 6073.3 kPa, x2 = 0.7509) was 160.561 ± 0.096 kg/m3 and the mass density (283.15 K, 6588 kPa, x2 = 0.7509) was 183.67 ± 0.17 kg/m3. The mass density (283.15 K, 7263.8 kPa, x2 = 0.7509) was 219.753 ± 0.21 kg/m3, the mass density (293.15 K, 502.06 kPa, x2 = 0.7509) was 9.02478 ± 0.0042 kg/m3 and the mass density (293.15 K, 1001.8 kPa, x2 = 0.7509) was 18.3618 ± 0.0071 kg/m3. It also gave a mass density (293.15 K, 2024.4 kPa, x2 = 0.7509) of 38.7149 ± 0.014 kg/m3, a mass density (293.15 K, 3001.1 kPa, x2 = 0.7509) of 60.0081 ± 0.021 kg/m3 and a mass density (293.15 K, 4009 kPa, x2 = 0.7509) of 84.353 ± 0.03 kg/m3. The mass density (293.15 K, 4996.8 kPa, x2 = 0.7509) was 111.184 ± 0.044 kg/m3, the mass density (293.15 K, 6024 kPa, x2 = 0.7509) was 143.207 ± 0.068 kg/m3 and the mass density (293.15 K, 7049 kPa, x2 = 0.7509) was 180.86 ± 0.11 kg/m3. The mass density (293.15 K, 8016.8 kPa, x2 = 0.7509) was 223.61 ± 0.17 kg/m3, the mass density (293.15 K, 9051.1 kPa, x2 = 0.7509) was 279.404 ± 0.24 kg/m3 and the mass density (298.15 K, 505.28 kPa, x2 = 0.5) was 8.65443 ± 0.21 kg/m3. It also gave a mass density (298.15 K, 1014.6 kPa, x2 = 0.5) of 17.5824 ± 0.4 kg/m3, a mass density (298.15 K, 2019.2 kPa, x2 = 0.5) of 35.8258 ± 0.013 kg/m3 and a mass density (298.15 K, 3020.7 kPa, x2 = 0.5) of 54.9064 ± 0.42 kg/m3. The mass density (298.15 K, 4024.4 kPa, x2 = 0.5) was 75.0005 ± 2.1 kg/m3, the mass density (298.15 K, 5017 kPa, x2 = 0.5) was 95.8895 ± 5.1 kg/m3 and the mass density (298.15 K, 6025.4 kPa, x2 = 0.5) was 118.229 ± 0.04 kg/m3. The mass density (298.15 K, 7045.2 kPa, x2 = 0.5) was 142.007 ± 7.5 kg/m3, the mass density (298.15 K, 8014 kPa, x2 = 0.5) was 165.743 ± 16 kg/m3 and the mass density (323.15 K, 514.24 kPa, x2 = 0.7509) was 8.34326 ± 0.004 kg/m3. For the same compound, the mass density (323.15 K, 516.98 kPa, x2 = 0.4998) was 8.14761 ± 0.0039 kg/m3, the mass density (323.15 K, 1021 kPa, x2 = 0.7509) was 16.796 ± 0.0066 kg/m3 and the mass density (323.15 K, 1022 kPa, x2 = 0.4998) was 16.244 ± 0.0064 kg/m3. It also gave a mass density (323.15 K, 2012.2 kPa, x2 = 0.7509) of 34.0421 ± 0.014 kg/m3, a mass density (323.15 K, 3034 kPa, x2 = 0.4998) of 49.9179 ± 0.018 kg/m3 and a mass density (323.15 K, 3036.1 kPa, x2 = 0.7509) of 52.9514 ± 0.019 kg/m3. For the same compound, the mass density (323.15 K, 4037.8 kPa, x2 = 0.7509) was 72.6588 ± 0.031 kg/m3, the mass density (323.15 K, 5040.2 kPa, x2 = 0.4998) was 85.8585 ± 0.031 kg/m3 and the mass density (323.15 K, 5061.8 kPa, x2 = 0.7509) was 94.214 ± 0.035 kg/m3. It also gave a mass density (323.15 K, 6055.5 kPa, x2 = 0.7509) of 116.646 ± 0.053 kg/m3, a mass density (323.15 K, 7040 kPa, x2 = 0.4998) of 124.127 ± 0.048 kg/m3 and a mass density (323.15 K, 7054.8 kPa, x2 = 0.7509) of 140.911 ± 0.055 kg/m3. For the same compound, the mass density (323.15 K, 8053.7 kPa, x2 = 0.7509) was 167.037 ± 0.095 kg/m3, the mass density (323.15 K, 9016.6 kPa, x2 = 0.4998) was 164.336 ± 0.073 kg/m3 and the mass density (323.15 K, 9045 kPa, x2 = 0.7509) was 195.026 ± 0.082 kg/m3.
